Drawing on patent US20250230155A1 (Vanderbilt University, priority 2021, published 2025), this text covers Emax and EC50 for 24 compounds.

For this experiment, the target named is T1, human mAChR M4 (Homo sapiens, UniProt P08173).
T1 construct: expressed in transfected cells
T1 sequence (P08173 1-479): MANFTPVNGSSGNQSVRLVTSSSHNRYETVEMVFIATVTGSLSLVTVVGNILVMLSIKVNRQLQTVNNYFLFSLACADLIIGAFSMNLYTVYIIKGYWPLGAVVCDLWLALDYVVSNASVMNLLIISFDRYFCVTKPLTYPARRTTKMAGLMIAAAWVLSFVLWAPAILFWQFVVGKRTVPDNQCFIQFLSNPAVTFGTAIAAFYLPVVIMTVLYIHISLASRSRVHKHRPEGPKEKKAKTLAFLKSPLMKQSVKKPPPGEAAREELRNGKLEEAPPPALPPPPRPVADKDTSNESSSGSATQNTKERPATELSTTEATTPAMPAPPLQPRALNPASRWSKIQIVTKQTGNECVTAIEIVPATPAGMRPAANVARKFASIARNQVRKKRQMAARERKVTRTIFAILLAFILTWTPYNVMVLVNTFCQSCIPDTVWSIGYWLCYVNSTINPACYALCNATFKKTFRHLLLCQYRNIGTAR
The experiment in a line: mAChR M4 cell-based functional assay (calcium mobilization, CHO-K1 hM4-Gqi5 cells). To be noted: for Emax at 30 µM: CHO-K1, % ACh maximum at 30 μM, human M4; for EC50: positive allosteric modulator activity, increase in the EC20 acetylcholine response, CHO-K1 hM4-Gqi5 cells, read-out: Human M4 EC50. In a few lines: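 Fluorescent calcium read-out (Fluo-4 AM, FDSS, 1 Hz) in hM4-Gqi5 CHO-K1 cells, 11-point 1:3 compound series. Agonism scored on compound addition, PAM activity as increase of the 144 s EC20 acetylcholine response, antagonism as decrease of the 230 s EC80 response; four-parameter logistic fits give EC50 and Emax.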

As to `Cc1cc(C(=O)NCc2ccncc2)cnc1N1CCc2ncc(-c3ccc(C4CC4)nc3)cc2C1` [Example 483, 6-(3-(6-cyclopropylpyridin-3-yl)-7,8-dihydro-1,6-naphthyridin-6(5H)-yl)-5-methyl-N-(pyridin-4-ylmethyl)nicotinamide], the Emax (commonly the maximal effect, on the per cent scale that the assay sets) at 30 µM came to 84% and the 50% effective concentration (EC50) – broadly, the concentration giving half of the maximal effect – was 0.313 µM.
For `Cc1cc(C(=O)NCc2cscn2)cnc1N1CCc2ncc(-c3ccc(C4CC4)nc3)cc2C1` [Example 484, 6-(3-(6-cyclopropylpyridin-3-yl)-7,8-dihydro-1,6-naphthyridin-6(5H)-yl)-5-methyl-N-(thiazol-4-ylmethyl)nicotinamide], in that order: 88% and 0.176 µM.
For `Cc1cc(C(=O)NCc2cncs2)cnc1N1CCc2ncc(-c3ccc(N(C)C)nc3)cc2C1` [Example 485, 6-(3-(6-(dimethylamino)pyridin-3-yl)-7,8-dihydro-1,6-naphthyridin-6(5H)-yl)-5-methyl-N-(thiazol-5-ylmethyl)nicotinamide] the same measures were 79% and 0.247 µM.
For `Cc1cnc2c(c1)CN(c1nnc(C(=O)NCc3ccncc3)c(C)c1C)CC2` [Example 486, 4,5-dimethyl-6-(3-methyl-7,8-dihydro-1,6-naphthyridin-6(5H)-yl)-N-(pyridin-4-ylmethyl)pyridazine-3-carboxamide], in that order: 97% and 0.286 µM.
Regarding `Cc1nn(C)cc1-c1cnc2c(c1)CN(c1ncc(C(N)=O)cc1C(F)(F)F)CC2` [Example 487, 6-(3-(1,3-dimethyl-1H-pyrazol-4-yl)-7,8-dihydro-1,6-naphthyridin-6(5H)-yl)-5-(trifluoromethyl)nicotinamide], the Emax at 30 µM is 38% and the concentration for a half-maximal effect (EC50) turned out to be 2.88 µM.
For `Cc1cc(C(=O)N2CCCC2)nnc1N1CCc2ncc(N3CCCn4nccc43)cc2C1` [Example 488, (6-(3-(6,7-dihydropyrazolo[1,5-a]pyrimidin-4(5H)-yl)-7,8-dihydro-1,6-naphthyridin-6(5H)-yl)-5-methylpyridazin-3-yl)(pyrrolidin-1-yl)methanone], in that order: 89% and 0.217 µM.
For `Cc1cc(C(=O)NCc2cncs2)nnc1N1CCc2ncc(N3CCCn4nccc43)cc2C1` [Example 489, 6-(3-(6,7-dihydropyrazolo[1,5-a]pyrimidin-4(5H)-yl)-7,8-dihydro-1,6-naphthyridin-6(5H)-yl)-5-methyl-N-(thiazol-5-ylmethyl)pyridazine-3-carboxamide] the same measures were 95% and 0.005 µM.
For `Cc1cc(C(=O)NCc2ccncc2)nnc1N1CCc2ncc(N3CCCn4nccc43)cc2C1` [Example 490, 6-(3-(6,7-dihydropyrazolo[1,5-a]pyrimidin-4(5H)-yl)-7,8-dihydro-1,6-naphthyridin-6(5H)-yl)-5-methyl-N-(pyridin-4-ylmethyl)pyridazine-3-carboxamide] the same measures were 100% and 0.016 µM.
On to `Cc1cnccc1CNC(=O)c1cc(C)c(N2CCc3ncc(N4CCCn5nccc54)cc3C2)nn1` [Example 491, 6-(3-(6,7-dihydropyrazolo[1,5-a]pyrimidin-4(5H)-yl)-7,8-dihydro-1,6-naphthyridin-6(5H)-yl)-5-methyl-N-((3-methylpyridin-4-yl)methyl)pyridazine-3-carboxamide], for which the Emax at 30 µM came to 91% and the concentration for a half-maximal effect (EC50) came out at 0.015 µM.
For `Cc1cc(C(=O)NCc2cncs2)nnc1N1CCc2ncc(C(F)(F)F)cc2C1` [Example 492, 5-methyl-N-(thiazol-5-ylmethyl)-6-(3-(trifluoromethyl)-7,8-dihydro-1,6-naphthyridin-6(5H)-yl)pyridazine-3-carboxamide], in that order: 110% and 0.017 µM.
For `Cc1cc(C(=O)NCc2ccncc2)nnc1N1CCc2ncc(C(F)(F)F)cc2C1` [Example 493, 5-methyl-N-(pyridin-4-ylmethyl)-6-(3-(trifluoromethyl)-7,8-dihydro-1,6-naphthyridin-6(5H)-yl)pyridazine-3-carboxamide] the same measures were 112% and 0.037 µM.
On to `Cc1cnccc1CNC(=O)c1cc(C)c(N2CCc3ncc(C(F)(F)F)cc3C2)nn1` [Example 494, 5-methyl-N-((3-methylpyridin-4-yl)methyl)-6-(3-(trifluoromethyl)-7,8-dihydro-1,6-naphthyridin-6(5H)-yl)pyridazine-3-carboxamide], for which the maximal effect (Emax) at 30 µM was 106% and the concentration giving a half-maximal response (EC50) is 0.036 µM.
For `COc1cnccc1CNC(=O)c1cc(C)c(N2CCc3ncc(C(F)(F)F)cc3C2)nn1` [Example 495, N-((3-methoxypyridin-4-yl)methyl)-5-methyl-6-(3-(trifluoromethyl)-7,8-dihydro-1,6-naphthyridin-6(5H)-yl)pyridazine-3-carboxamide], in that order: 102% and 0.043 µM.
For the compound `Cc1cc(C(=O)NCc2ccncc2F)nnc1N1CCc2ncc(C(F)(F)F)cc2C1` [Example 496, N-((3-fluoropyridin-4-yl)methyl)-5-methyl-6-(3-(trifluoromethyl)-7,8-dihydro-1,6-naphthyridin-6(5H)-yl)pyridazine-3-carboxamide], the maximal response (Emax) at 30 µM worked out at 102% and the EC50 was 0.037 µM.
On to `Cc1cc(C(=O)NCc2ccncc2Cl)nnc1N1CCc2ncc(C(F)(F)F)cc2C1` [Example 497, N-((3-chloropyridin-4-yl)methyl)-5-methyl-6-(3-(trifluoromethyl)-7,8-dihydro-1,6-naphthyridin-6(5H)-yl)pyridazine-3-carboxamide], for which the Emax at 30 µM was 101% and the 50% effective concentration (EC50) amounted to 0.064 µM.
For `Cc1cc(C(=O)N2CCc3cnccc3C2)nnc1N1CCc2ncc(C(F)(F)F)cc2C1` [Example 498, (3,4-dihydro-2,6-naphthyridin-2(1H)-yl)(5-methyl-6-(3-(trifluoromethyl)-7,8-dihydro-1,6-naphthyridin-6(5H)-yl)pyridazin-3-yl)methanone], in that order: 85% and 3.17 µM.
For `Cc1cc(C(=O)N2CCc3ccncc3C2)nnc1N1CCc2ncc(C(F)(F)F)cc2C1` [Example 499, (3,4-dihydro-2,7-naphthyridin-2(1H)-yl)(5-methyl-6-(3-(trifluoromethyl)-7,8-dihydro-1,6-naphthyridin-6(5H)-yl)pyridazin-3-yl)methanone] the same measures were 88% and 2.67 µM.
For `Cc1cc(C(=O)N2CCc3cccnc3C2)nnc1N1CCc2ncc(C(F)(F)F)cc2C1` [Example 500, (5,8-dihydro-1,7-naphthyridin-7(6H)-yl)(5-methyl-6-(3-(trifluoromethyl)-7,8-dihydro-1,6-naphthyridin-6(5H)-yl)pyridazin-3-yl)methanone], in that order: 92% and 1.79 µM.
As for `Cc1cc(C(=O)NC2CCc3ncccc3C2)nnc1N1CCc2ncc(C(F)(F)F)cc2C1` (stereo not drawn) [Example 501, 5-methyl-N-(5,6,7,8-tetrahydroquinolin-6-yl)-6-(3-(trifluoromethyl)-7,8-dihydro-1,6-naphthyridin-6(5H)-yl)pyridazine-3-carboxamide], the maximum response (Emax) at 30 µM amounted to 109% and the concentration giving a half-maximal response (EC50) turned out to be 0.127 µM.
For `Cc1cc(C(=O)N2CCCC2)nnc1N1CCc2ncc(C(F)(F)F)cc2C1` [Example 502, (5-methyl-6-(3-(trifluoromethyl)-7,8-dihydro-1,6-naphthyridin-6(5H)-yl)pyridazin-3-yl)(pyrrolidin-1-yl)methanone] the same measures were 105% and 3.53 µM.
For `Cc1cc(C(=O)N2CCCn3nccc32)nnc1N1CCc2ncc(C(F)(F)F)cc2C1` [Example 503, (6,7-dihydropyrazolo[1,5-a]pyrimidin-4(5H)-yl)(5-methyl-6-(3-(trifluoromethyl)-7,8-dihydro-1,6-naphthyridin-6(5H)-yl)pyridazin-3-yl)methanone], in that order: 103% and 4.08 µM.
As for `Cc1cc(C(=O)N2CC3CC3C2)nnc1N1CCc2ncc(C(F)(F)F)cc2C1` (stereo not drawn) [Example 504, (3-azabicyclo[3.1.0]hexan-3-yl)(5-methyl-6-(3-(trifluoromethyl)-7,8-dihydro-1,6-naphthyridin-6(5H)-yl)pyridazin-3-yl)methanone], the maximum response (Emax) at 30 µM turned out to be 101% and the 50% effective concentration (EC50) amounted to 3.87 µM.
For `[2H]C([2H])(NC(=O)c1cc(C)c(N2CCc3ncc(C(F)(F)F)cc3C2)nn1)c1ccncc1` [Example 505, 5-methyl-N-(pyridin-4-ylmethyl-d2)-6-(3-(trifluoromethyl)-7,8-dihydro-1,6-naphthyridin-6(5H)-yl)pyridazine-3-carboxamide] the same measures were 112% and 0.021 µM.
With `Cc1cc(C(=O)N(C)Cc2ccncc2)nnc1N1CCc2ncc(C(F)(F)F)cc2C1` [Example 506, N,5-dimethyl-N-(pyridin-4-ylmethyl)-6-(3-(trifluoromethyl)-7,8-dihydro-1,6-naphthyridin-6(5H)-yl)pyridazine-3-carboxamide], the maximal response (Emax) at 30 µM turned out to be 84% and the concentration for a half-maximal effect (EC50) stood at 2.81 µM.
